Laboratory results reported in patent US11981679B2, “Tricyclic compounds, compositions and medicinal applications thereof” (IMPETIS BIOSCIENCES LTD., priority 2018, dated 2024).

Experiments:
A2B adenosine receptor = biological target: T1, A2B adenosine receptor (Homo sapiens, UniProt P29275); test: cAMP assay for adenosine receptor (HTRF), HEK-A2B; type: cell-based; conditions: HEK-A2B cells, agonist 70 nM NECA, read-out: A2B Functional Ki
T1 construct: expressed in transfected cells; host or cells: HEK-293 (HEK-A2B)
T1 sequence (P29275 1-332): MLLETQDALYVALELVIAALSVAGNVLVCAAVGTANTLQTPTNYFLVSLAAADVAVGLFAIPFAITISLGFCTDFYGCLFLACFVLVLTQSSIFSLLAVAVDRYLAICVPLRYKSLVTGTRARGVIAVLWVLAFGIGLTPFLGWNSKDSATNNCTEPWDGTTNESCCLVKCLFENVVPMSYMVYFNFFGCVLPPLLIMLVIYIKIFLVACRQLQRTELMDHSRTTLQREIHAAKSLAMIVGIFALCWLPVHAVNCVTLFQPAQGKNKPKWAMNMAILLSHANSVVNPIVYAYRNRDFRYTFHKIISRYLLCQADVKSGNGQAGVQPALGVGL
Protocol: (§1) cAMP Assay for Adenosine Receptor.
(§2) The functional activity of test compounds on A2A and A2B adenosine receptors and selectivity over A1 adenosine was determined using HTRF based cAMP assay (Cisbio). Briefly, overnight seeded cultures (HEK-A1, HEK-A2A, HEK-A2B) were treated with 1U/ml ADA for 90 minutes at 37° C. and 5% CO2. Cell suspensions were treated with increasing concentrations of test compounds for 15 minutes followed by treatment with agonists for 15 minutes (1 nM CPA for HEK-A1 and 70 nM NECA for HEK-A2B) or 30 min (10 nM CGS-21680 for HEK-A2A) at room temperature with continuous mixing in incomplete DMEM supplemented with 1U/ml ADA. Rolipram (20 μM) was included in the assay for A1 and A2A adenosine receptors. For functional activity of HEK-A1, cell suspensions were further treated with forskolin for 30 minutes at room temperature with constant mixing. cAMP levels were quantified using a Flex Station III (Molecular Devices) at an excitation maximum of 313 nm and emission maxima of 620 nm and 665 nm. Data was analyzed using GraphPad Prism to generate IC50 and Ki. The biological activity data is provided in the Table below. <10 nM are represented as ++++, 10-30 nM as +++, 30-100 nM ++ and the K, value >100 nM as +.

A2A adenosine receptor = biological target: T2, A2A adenosine receptor (Homo sapiens, UniProt P29274); test: cAMP assay for adenosine receptor (HTRF), HEK-A2A; type: cell-based; conditions: HEK-A2A cells, agonist 10 nM CGS-21680, Rolipram 20 μM, read-out: A2A Functional Ki
T2 construct: expressed in transfected cells; host or cells: HEK-293 (HEK-A2A)
T2 sequence (P29274 whole entry): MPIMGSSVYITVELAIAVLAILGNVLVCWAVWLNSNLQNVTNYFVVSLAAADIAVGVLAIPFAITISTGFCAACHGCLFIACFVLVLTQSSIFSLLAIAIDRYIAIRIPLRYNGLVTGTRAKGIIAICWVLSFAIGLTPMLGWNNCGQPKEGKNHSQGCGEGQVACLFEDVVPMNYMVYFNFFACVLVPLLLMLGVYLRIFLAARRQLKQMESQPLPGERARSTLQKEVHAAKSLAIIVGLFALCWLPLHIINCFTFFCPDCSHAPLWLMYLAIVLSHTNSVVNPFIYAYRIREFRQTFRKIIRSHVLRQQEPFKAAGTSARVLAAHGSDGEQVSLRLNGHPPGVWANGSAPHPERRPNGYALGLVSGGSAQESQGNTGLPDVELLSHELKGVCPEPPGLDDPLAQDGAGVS
Protocol: as §1, §2

Ki (A2B adenosine receptor) | Ki (A2A adenosine receptor) | SMILES
< 10 nM | < 10 nM | CCCn1c(=O)c2[nH]c(-c3cnn(Cc4cccc(C(F)(F)F)c4)c3)nc2n2ccnc12 [Example A1, 5-propyl-2-[1-[[3-(trifluoromethyl)phenyl]methyl]pyrazol-4-yl]-3H-imidazo[2,1-b]purin-4-one]
< 10 nM | < 10 nM | CCCn1c(=O)c2[nH]c(-c3cnn(C(C)(C)CC)c3)nc2n2ccnc12 [Example A7, 2-[1-(1,1-dimethylpropyl)pyrazol-4-yl]-5-propyl-3H-imidazo[2,1-b]purin-4-one]
< 10 nM | 10 to 30 nM | CCCn1c(=O)c2[nH]c(-c3cnn(CC#Cc4cccc(C(=O)OCC)c4)c3)nc2n2ccnc12 [Example B2, Ethyl 3-[3-[4-(4-oxo-5-propyl-3H-imidazo[2,1-b]purin-2-yl)pyrazol-1-yl]prop-1-ynyl]benzoate]
< 10 nM | 10 to 30 nM | CCCn1c(=O)c2[nH]c(-c3cnn(C(C)C)c3)nc2n2ccnc12 [Example B8, 2-(1-isopropylpyrazol-4-yl)-5-propyl-3H-imidazo[2,1-b]purin-4-one]
10 to 30 nM | > 100 nM | CCCn1c(=O)c2[nH]c(-c3cnn(CCOC)c3)nc2n2ccnc12 [Example B11, 2-[1-(2-methoxyethyl)pyrazol-4-yl]-5-propyl-3H-imidazo[2,1-b]purin-4-one]
10 to 30 nM | > 100 nM | CCCn1c(=O)c2[nH]c(-c3cnn(CCN(C)C)c3)nc2n2ccnc12 [Example B12, 2-[1-(2-dimethylaminoethyl)pyrazol-4-yl]-5-propyl-3H-imidazo[2,1-b]purin-4-one]
< 10 nM | < 10 nM | CCCn1cc(-c2nc3c([nH]2)c(=O)n(CCC)c2nccn32)cn1 [Example B13, 5-propyl-2-(1-propylpyrazol-4-yl)-3H-imidazo[2,1-b]purin-4-one]
< 10 nM | 10 to 30 nM | CCCn1c(=O)c2[nH]c(-c3cnn(CC(C)C)c3)nc2n2ccnc12 [Example B17, 2-(1-isobutylpyrazol-4-yl)-5-propyl-3H-imidazo[2,1-b]purin-4-one]
< 10 nM | < 10 nM | CCCn1c(=O)c2[nH]c(-c3cnn(CC(C)(C)C)c3)nc2n2ccnc12 [Example B19, 2-[1-(2,2-dimethylpropyl)pyrazol-4-yl]-5-propyl-3H-imidazo[2,1-b]purin-4-one]
< 10 nM | < 10 nM | CCCn1c(=O)c2[nH]c(-c3cnn(C(C)CC)c3)nc2n2ccnc12 (stereo not shown) [Example B20, 5-propyl-2-(1-sec-butylpyrazol-4-yl)-3H-imidazo[2,1-b]purin-4-one]
< 10 nM | 10 to 30 nM | CCCn1c(=O)c2[nH]c(-c3cnn(Cc4cccc(C(=O)O)c4)c3)nc2n2ccnc12 [Example G1, 3-[[4-(4-oxo-5-propyl-3H-imidazo[2,1-b]purin-2-yl)pyrazol-1-yl]methyl]benzoic Acid]
30 to 100 nM | > 100 nM | CCCn1c(=O)c2[nH]c(-c3cnn(CC(=O)O)c3)nc2n2ccnc12 [Example H1, 2-[4-(4-oxo-5-propyl-3H-imidazo[2,1-b]purin-2-yl)pyrazol-1-yl]acetic acid]

Further lines, the compound ahead of its results:

SMILES | Ki (A2B adenosine receptor) | Ki (A2A adenosine receptor)
Cn1c(=O)c2[nH]c(-c3cnn(Cc4cccc(C(F)(F)F)c4)c3)nc2n2ccnc12 [Example A3, 5-methyl-2-[1-[[3-(trifluoromethyl)phenyl]methyl]pyrazol-4-yl]-3H-imidazo[2,1-b]purin-4-one] | < 10 nM | 10 to 30 nM
CCCn1c(=O)c2[nH]c(-c3cnn(CCc4cccc(F)c4)c3)nc2n2ccnc12 [Example A5, 2-[1-[2-(3-fluorophenyl)ethyl]pyrazol-4-yl]-5-propyl-3H-imidazo[2,1-b]purin-4-one] |  | 30 to 100 nM
CCCn1c(=O)c2[nH]c(-c3cnn(C)c3)nc2n2ccnc12 [Example A6, 2-(1-methylpyrazol-4-yl)-5-propyl-3H-imidazo[2,1-b]purin-4-one] |  | > 100 nM
CCCn1c(=O)c2[nH]c(-c3cnn(CC#Cc4cccc(OC(F)(F)F)c4)c3)nc2n2ccnc12 [Example B3, 5-propyl-2-[1-[3-[3-(trifluoromethoxy)phenyl]prop-2-ynyl]pyrazol-4-yl]-3H-imidazo[2,1-b]purin-4-one] | < 10 nM | 10 to 30 nM
CCCn1c(=O)c2[nH]c(-c3cnn(CC#Cc4cc(C(=O)OCC)ccc4C)c3)nc2n2ccnc12 [Example B6, Ethyl 4-methyl-3-[3-[4-(4-oxo-5-propyl-3H-imidazo[2,1-b]purin-2-yl)pyrazol-1-yl]prop-1-ynyl]benzoate] | < 10 nM | 30 to 100 nM
CCCn1c(=O)c2[nH]c(-c3cnn(Cc4cccc(C#N)c4)c3)nc2n2ccnc12 [Example B7, 3-[[4-(4-oxo-5-propyl-3H-imidazo[2,1-b]purin-2-yl)pyrazol-1-yl]methyl]benzonitrile] | < 10 nM | < 10 nM
CCCCn1cc(-c2nc3c([nH]2)c(=O)n(CCC)c2nccn32)cn1 [Example B9, 2-(1-butylpyrazol-4-yl)-5-propyl-3H-imidazo[2,1-b]purin-4-one] | < 10 nM | 10 to 30 nM
CCCn1c(=O)c2[nH]c(-c3cnn(CC)c3)nc2n2ccnc12 [Example B10, 2-(1-ethylpyrazol-4-yl)-5-propyl-3H-imidazo[2,1-b]purin-4-one] | < 10 nM | 10 to 30 nM
CCCn1c(=O)c2[nH]c(-c3cnn(CC(=O)N(C)C)c3)nc2n2ccnc12 [Example B14, N,N-dimethyl-2-[4-(4-oxo-5-propyl-3H-imidazo[2,1-b]purin-2-yl)pyrazol-1-yl]acetamide] | < 10 nM | > 100 nM
CCCn1c(=O)c2[nH]c(-c3cnn(CC4CCC4)c3)nc2n2ccnc12 [Example B16, 2-[1-(cyclobutylmethyl)pyrazol-4-yl]-5-propyl-3H-imidazo[2,1-b]purin-4-one] | < 10 nM | < 10 nM
CCCn1c(=O)c2[nH]c(-c3cnn(CC4CC(=O)N(c5cncc(C(F)(F)F)c5)C4)c3)nc2n2ccnc12 (stereo not shown) [Example C2, 2-[1-[[5-oxo-1-[5-(trifluoromethyl)-3-pyridyl]pyrrolidin-3-yl]methyl]pyrazol-4-yl]-5-propyl-3H-imidazo[2,1-b]purin-4-one] | < 10 nM | 30 to 100 nM
CCCn1c(=O)c2[nH]c(-c3cnn(CCN4CCCCC4)c3)nc2n2ccnc12 [Example D1, 2-[1-[2-(1-piperidyl)ethyl]pyrazol-4-yl]-5-propyl-3H-imidazo[2,1-b]purin-4-one] | < 10 nM | 30 to 100 nM
CCCn1c(=O)c2[nH]c(-c3cnn(Cc4cccc(CO)c4)c3)nc2n2ccnc12 [Example E1, 2-[1-[[3-(hydroxymethyl)phenyl]methyl]pyrazol-4-yl]-5-propyl-3H-imidazo[2,1-b]purin-4-one] | < 10 nM | < 10 nM
CCCn1c(=O)c2[nH]c(-c3cnn(Cc4cccc(C(C)(C)O)c4)c3)nc2n2ccnc12 [Example F1, 2-[1-[[3-(1-hydroxy-1-methyl-ethyl)phenyl]methyl]pyrazol-4-yl]-5-propyl-3H-imidazo[2,1-b]purin-4-one] | < 10 nM | 10 to 30 nM
CCCn1c(=O)c2[nH]c(-c3cnn(CC(O)CO)c3)nc2n2ccnc12 (stereo not shown) [Example J1, 2-[1-(2,3-dihydroxypropyl)pyrazol-4-yl]-5-propyl-3H-imidazo[2,1-b]purin-4-one] | 30 to 100 nM | 30 to 100 nM
